Assays:
Human κ-Opioid (KOP) = biological target: T1, Human κ-Opioid (KOP) (Homo sapiens, UniProt P41145); experiment: Radioligand binding, human κ-opioid (KOP) membranes, filtration, [3H]-Diprenorphine; conditions: compound at 10 μM
T1 construct: purchased Perkin Elmer Biosignal
Method in brief: (§1)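 Membranes from cloned human receptors were incubated with compound and radioligand for 1 hour at room temperature. Bound ligand was collected on 0.3% PEI-soaked filters, washed with cold 50 mM Tris-HCl pH 7.4, and counted by scintillation. Percent inhibition was computed against DMSO totals and reference-ligand nonspecific wells.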

Human Melanocortin (MC3) = biological target: T2, Human Melanocortin (MC3) (Homo sapiens, UniProt P41968); experiment: Radioligand binding, human melanocortin MC3 membranes, FlashPlate, [125I]-NDP-αMSH; conditions: compound at 10 μM
T2 construct: purchased Perkin Elmer Biosignal
T2 sequence (P41968 whole entry): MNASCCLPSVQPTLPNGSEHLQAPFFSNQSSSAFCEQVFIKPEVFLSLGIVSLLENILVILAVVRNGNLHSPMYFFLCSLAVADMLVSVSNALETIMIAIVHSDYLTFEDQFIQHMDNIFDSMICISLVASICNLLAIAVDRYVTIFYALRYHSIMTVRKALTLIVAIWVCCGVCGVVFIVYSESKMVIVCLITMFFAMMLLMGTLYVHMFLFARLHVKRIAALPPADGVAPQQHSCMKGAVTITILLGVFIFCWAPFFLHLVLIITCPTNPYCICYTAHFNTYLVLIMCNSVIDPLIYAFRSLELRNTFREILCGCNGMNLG
Method in brief: (§2)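 Cloned human receptor membranes were coated onto FlashPlate wells and incubated with radioligand and compound (added from a 0.5 mM DMSO daughter plate) for 1 hour at room temperature in the dark. Scintillation counting gave percent inhibition, with DMSO defining total and reference ligand defining non-specific binding.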

Mouse urotensin (mUR2) = biological target: T3, Mouse urotensin (mUR2) (Mus musculus, UniProt Q8VIH9); experiment: Radioligand binding, mouse urotensin mUR2 membranes, FlashPlate, [125I]-Urotensin II; conditions: compound at 10 μM
T3 construct: purchased Perkin Elmer Biosignal
T3 sequence (Q8VIH9 1-385): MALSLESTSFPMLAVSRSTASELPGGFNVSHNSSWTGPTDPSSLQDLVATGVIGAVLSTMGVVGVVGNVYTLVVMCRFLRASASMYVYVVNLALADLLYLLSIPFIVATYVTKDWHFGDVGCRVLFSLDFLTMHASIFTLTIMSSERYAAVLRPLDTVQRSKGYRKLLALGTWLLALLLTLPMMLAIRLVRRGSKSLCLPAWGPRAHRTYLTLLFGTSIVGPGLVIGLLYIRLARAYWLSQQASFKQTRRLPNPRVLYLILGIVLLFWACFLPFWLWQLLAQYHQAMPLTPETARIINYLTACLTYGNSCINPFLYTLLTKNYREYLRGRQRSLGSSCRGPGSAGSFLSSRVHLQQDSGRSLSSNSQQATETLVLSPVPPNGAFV
Method in brief: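 Cloned mouse urotensin (mUR2) receptor membranes from Perkin Elmer Biosignal were immobilized in FlashPlate microplates using a proprietary coating. Each well got 19.5 μl buffer, then 0.5 μl of DMSO, reference ligand, or compound. Adding 5 μl of [125I]-Urotensin II, diluted to 5× final concentration in binding buffer, started binding. Plates were sealed with TopSeal-A and incubated 1 hour at room temperature in the dark. Wells were counted for 30 seconds each on a TopCount after a 60-second delay, and percentage inhibition was calculated.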

[1] = biological target: T4, Human melanin-concentrating hormone (MCH1) (Homo sapiens, UniProt Q99705); experiment: Radioligand binding, human melanin-concentrating hormone MCH1 membranes, FlashPlate, [125I]-S36057; conditions: compound at 10 μM; for A6: inhibition of radioligand binding, human melanin-concentrating hormone (MCH1): [125I]-S36057
T4 construct: purchased Perkin Elmer Biosignal
T4 sequence (Q99705 whole entry): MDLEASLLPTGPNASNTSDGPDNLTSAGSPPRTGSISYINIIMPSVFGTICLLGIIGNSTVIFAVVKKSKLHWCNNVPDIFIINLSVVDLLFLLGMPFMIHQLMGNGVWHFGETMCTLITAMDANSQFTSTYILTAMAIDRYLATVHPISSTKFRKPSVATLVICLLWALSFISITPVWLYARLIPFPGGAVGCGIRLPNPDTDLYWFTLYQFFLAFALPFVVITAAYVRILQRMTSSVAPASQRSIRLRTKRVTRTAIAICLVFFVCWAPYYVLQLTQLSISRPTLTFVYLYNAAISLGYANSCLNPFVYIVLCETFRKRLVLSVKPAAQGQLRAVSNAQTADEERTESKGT
Method in brief: as §2

Human melanocortin (MC5) = biological target: T5, Human melanocortin (MC5) (Homo sapiens, UniProt P33032); experiment: Radioligand binding, human melanocortin MC5 membranes, FlashPlate, [125I]-NDP-αMSH; conditions: compound at 10 μM
T5 construct: purchased Perkin Elmer Biosignal
T5 sequence (P33032 whole entry): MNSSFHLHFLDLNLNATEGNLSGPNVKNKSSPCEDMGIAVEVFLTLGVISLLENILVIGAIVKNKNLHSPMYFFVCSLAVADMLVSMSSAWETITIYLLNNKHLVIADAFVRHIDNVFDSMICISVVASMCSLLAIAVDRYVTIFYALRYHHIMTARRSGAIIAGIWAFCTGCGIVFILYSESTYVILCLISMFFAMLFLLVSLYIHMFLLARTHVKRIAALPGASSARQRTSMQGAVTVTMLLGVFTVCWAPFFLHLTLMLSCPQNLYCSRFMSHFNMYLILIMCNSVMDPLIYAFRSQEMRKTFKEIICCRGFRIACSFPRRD
Method in brief: as §2

[2] = biological target: T6, Human neuropeptide Y (NPY-Y1) (Homo sapiens, UniProt P25929); experiment: Radioligand binding, human neuropeptide Y NPY-Y1 membranes, FlashPlate, [125I]-PYY; conditions: compound at 10 μM
T6 construct: purchased Perkin Elmer Biosignal
T6 sequence (P25929 1-384): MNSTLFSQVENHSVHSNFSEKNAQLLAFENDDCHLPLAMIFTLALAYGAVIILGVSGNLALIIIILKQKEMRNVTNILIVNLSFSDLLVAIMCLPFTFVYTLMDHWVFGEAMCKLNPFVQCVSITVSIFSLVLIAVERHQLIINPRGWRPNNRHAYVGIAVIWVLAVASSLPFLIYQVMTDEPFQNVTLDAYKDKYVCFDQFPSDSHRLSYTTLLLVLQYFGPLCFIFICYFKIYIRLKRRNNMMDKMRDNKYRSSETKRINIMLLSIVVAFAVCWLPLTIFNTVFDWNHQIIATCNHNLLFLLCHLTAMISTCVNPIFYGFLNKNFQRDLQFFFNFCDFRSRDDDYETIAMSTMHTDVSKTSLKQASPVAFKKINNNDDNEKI
Method in brief: as §2

Human μ-opioid (MOP) = biological target: T7, Human μ-opioid (MOP) (Homo sapiens, UniProt P35372); experiment: Radioligand binding, human μ-opioid (MOP) membranes, FlashPlate, [3H]-Naloxone; conditions: compound at 10 μM
T7 construct: purchased Perkin Elmer Biosignal
T7 sequence (P35372 whole entry): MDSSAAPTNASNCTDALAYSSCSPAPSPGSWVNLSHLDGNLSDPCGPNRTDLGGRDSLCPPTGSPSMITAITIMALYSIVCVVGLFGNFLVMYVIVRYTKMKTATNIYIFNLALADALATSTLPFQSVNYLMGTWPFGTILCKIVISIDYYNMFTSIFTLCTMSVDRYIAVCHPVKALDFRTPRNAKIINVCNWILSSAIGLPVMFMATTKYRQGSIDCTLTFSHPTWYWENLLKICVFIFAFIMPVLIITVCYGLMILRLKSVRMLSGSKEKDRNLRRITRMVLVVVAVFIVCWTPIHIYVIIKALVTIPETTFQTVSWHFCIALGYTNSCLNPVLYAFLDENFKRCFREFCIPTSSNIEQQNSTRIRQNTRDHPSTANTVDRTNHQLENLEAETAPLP
Method in brief: as §2

Human Melanocortin (MC4) = biological target: T8, Human Melanocortin (MC4) (Homo sapiens, UniProt P32245); experiment: Radioligand binding, human melanocortin MC4 membranes, FlashPlate, [125I]-NDP-αMSH; conditions: compound at 10 μM
T8 construct: purchased Perkin Elmer Biosignal
T8 sequence (P32245 whole entry): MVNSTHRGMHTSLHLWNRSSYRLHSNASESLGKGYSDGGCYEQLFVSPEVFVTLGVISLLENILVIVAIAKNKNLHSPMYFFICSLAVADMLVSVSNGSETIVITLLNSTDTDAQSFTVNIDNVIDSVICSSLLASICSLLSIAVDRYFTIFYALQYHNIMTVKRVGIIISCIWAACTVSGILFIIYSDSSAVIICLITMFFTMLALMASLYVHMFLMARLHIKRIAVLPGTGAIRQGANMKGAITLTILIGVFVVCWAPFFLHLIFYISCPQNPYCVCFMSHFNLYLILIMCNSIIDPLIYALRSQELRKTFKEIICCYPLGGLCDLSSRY
Method in brief: as §2

Human δ-opioid (DOP) = biological target: T9, Human δ-opioid (DOP) (Homo sapiens, UniProt P41143); experiment: Radioligand binding, human δ-opioid (DOP) membranes, FlashPlate, [3H]-Bremazocine; conditions: compound at 10 μM
T9 construct: purchased Perkin Elmer Biosignal
T9 sequence (P41143 whole entry): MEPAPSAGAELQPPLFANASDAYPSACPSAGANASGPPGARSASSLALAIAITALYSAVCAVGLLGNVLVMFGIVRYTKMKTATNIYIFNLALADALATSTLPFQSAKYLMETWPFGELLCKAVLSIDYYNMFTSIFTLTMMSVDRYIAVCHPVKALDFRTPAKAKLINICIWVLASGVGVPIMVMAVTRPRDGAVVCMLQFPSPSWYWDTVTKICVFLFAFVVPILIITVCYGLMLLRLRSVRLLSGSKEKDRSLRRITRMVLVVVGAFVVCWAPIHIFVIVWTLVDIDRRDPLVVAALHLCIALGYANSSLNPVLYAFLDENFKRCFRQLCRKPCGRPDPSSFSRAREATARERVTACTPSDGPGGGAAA
Method in brief: as §2

Human neurokinin (NK1) = biological target: T10, Human neurokinin (NK1) (Homo sapiens, UniProt P25103); experiment: Radioligand binding, human neurokinin NK1 membranes, filtration, [125I]-Substance P; conditions: compound at 10 μM
T10 construct: purchased Perkin Elmer Biosignal
T10 sequence (P25103 whole entry): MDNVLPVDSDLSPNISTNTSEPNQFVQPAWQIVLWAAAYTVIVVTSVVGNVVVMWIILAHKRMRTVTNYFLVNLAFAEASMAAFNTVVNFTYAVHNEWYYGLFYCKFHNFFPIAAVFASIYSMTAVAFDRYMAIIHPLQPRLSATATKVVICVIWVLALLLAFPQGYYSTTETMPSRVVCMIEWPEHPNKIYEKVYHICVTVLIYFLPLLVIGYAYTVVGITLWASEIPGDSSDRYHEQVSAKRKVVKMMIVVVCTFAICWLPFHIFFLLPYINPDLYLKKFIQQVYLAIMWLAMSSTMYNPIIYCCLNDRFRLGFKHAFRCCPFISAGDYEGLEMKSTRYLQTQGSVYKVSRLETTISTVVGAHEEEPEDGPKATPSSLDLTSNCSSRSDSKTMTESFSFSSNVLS
Method in brief: as §1

Human opioid (ORL1) = biological target: T11, Human opioid (ORL1) (Homo sapiens, UniProt P41146); experiment: Radioligand binding, human opioid ORL1 membranes, FlashPlate, [125I]-Nociceptin; conditions: compound at 10 μM
T11 construct: purchased Perkin Elmer Biosignal
T11 sequence (P41146 whole entry): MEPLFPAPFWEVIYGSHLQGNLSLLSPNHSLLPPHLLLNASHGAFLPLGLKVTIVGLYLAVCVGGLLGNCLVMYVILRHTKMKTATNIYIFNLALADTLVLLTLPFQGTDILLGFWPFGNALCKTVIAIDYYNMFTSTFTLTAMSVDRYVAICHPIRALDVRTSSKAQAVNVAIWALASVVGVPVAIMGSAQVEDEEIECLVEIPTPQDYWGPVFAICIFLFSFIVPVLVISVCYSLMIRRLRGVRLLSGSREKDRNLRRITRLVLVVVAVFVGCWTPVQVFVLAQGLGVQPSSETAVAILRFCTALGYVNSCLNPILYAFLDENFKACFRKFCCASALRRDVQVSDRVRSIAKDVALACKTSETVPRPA
Method in brief: as §2

T1 sequence (P41145 whole entry): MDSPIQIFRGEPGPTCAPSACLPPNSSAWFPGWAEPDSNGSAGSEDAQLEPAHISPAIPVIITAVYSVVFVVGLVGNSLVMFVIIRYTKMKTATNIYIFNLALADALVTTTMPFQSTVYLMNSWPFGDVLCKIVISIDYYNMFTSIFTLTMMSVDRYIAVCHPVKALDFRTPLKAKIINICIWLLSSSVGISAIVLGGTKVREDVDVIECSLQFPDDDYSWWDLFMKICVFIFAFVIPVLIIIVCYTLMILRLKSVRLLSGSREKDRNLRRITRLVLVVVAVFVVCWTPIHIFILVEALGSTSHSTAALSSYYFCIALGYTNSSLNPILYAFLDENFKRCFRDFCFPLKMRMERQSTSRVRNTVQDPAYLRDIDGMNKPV

SMILES	A2: inhibition of radioligand binding, human κ-opioid (KOP) (Human κ-Opioid (KOP); [3H]-Diprenorphine)	A11: inhibition of radioligand binding, mouse urotensin (mUR2) (Mouse urotensin (mUR2); [125I]-Urotensin II)	A6: inhibition of radioligand binding, human melanin-concentrating hormone (MCH1) [1]	A5: inhibition of radioligand binding, human melanocortin (MC5) (Human melanocortin (MC5); [125I]-NDP-αMSH)	A9: inhibition of radioligand binding, human neuropeptide Y (NPY-Y1) ([2]; [125I]-PYY)	A4: inhibition of radioligand binding, human melanocortin (MC4) (Human Melanocortin (MC4); [125I]-NDP-αMSH)	A1: inhibition of radioligand binding, human δ-opioid (DOP) (Human δ-opioid (DOP); [3H]-Bremazocine)	A8: inhibition of radioligand binding, human neurokinin (NK1) (Human neurokinin (NK1); [125I]-Substance P)	A10: inhibition of radioligand binding, human opioid (ORL1) (Human opioid (ORL1); [125I]-Nociceptin)	A3: inhibition of radioligand binding, human melanocortin (MC3) (Human Melanocortin (MC3); [125I]-NDP-αMSH, 10 µM)	A7: inhibition of radioligand binding, human μ-opioid (MOP) (Human μ-opioid (MOP); [3H]-Naloxone, 10 µM)	further results
CSC1OC(COCc2ccc(-c3ccccc3)cc2)C(O)C(OCc2ccc3ccccc3c2)C1NC(=O)CCCN (stereo not shown) [compound 315]	− (“−” indicates less than 50% inhibition at 10 μM)	− (“−” indicates less than 50% inhibition at 10 μM)	− (“−” indicates less than 50% inhibition at 10 μM)	− (“−” indicates less than 50% inhibition at 10 μM)	− (“−” indicates less than 50% inhibition at 10 μM)	− (“−” indicates less than 50% inhibition at 10 μM)	− (“−” indicates less than 50% inhibition at 10 μM)	+ (“+” indicates greater than 50% inhibition at 10 μM)	− (“−” indicates less than 50% inhibition at 10 μM)			A3: inhibition of radioligand binding, human melanocortin (MC3) (Human Melanocortin (MC3); [125I]-NDP-αMSH): − (“−” indicates less than 50% inhibition at 10 μM); A7: inhibition of radioligand binding, human μ-opioid (MOP) (Human μ-opioid (MOP); [3H]-Naloxone): − (“−” indicates less than 50% inhibition at 10 μM)
COC[C@H]1OC(OCc2ccc(-c3ccccc3)cc2)[C@H](NC(=O)CCCNC(=N)N)[C@@H](OCc2ccc(-c3ccccc3)cc2)[C@@H]1O (single isomer, unassigned) [compound 335]		− (“−” indicates less than 50% inhibition at 10 μM)	+ (“+” indicates greater than 50% inhibition at 10 μM)	+ (“+” indicates greater than 50% inhibition at 10 μM)	− (“−” indicates less than 50% inhibition at 10 μM)	+ (“+” indicates greater than 50% inhibition at 10 μM)		+ (“+” indicates greater than 50% inhibition at 10 μM)	− (“−” indicates less than 50% inhibition at 10 μM)	+ (“+” indicates greater than 50% inhibition at 10 μM)	+ (“+” indicates greater than 50% inhibition at 10 μM)	A2: inhibition of radioligand binding, human κ-opioid (KOP) (Human κ-Opioid (KOP); [3H]-Diprenorphine, 10 µM): + (“+” indicates greater than 50% inhibition at 10 μM); A1: inhibition of radioligand binding, human δ-opioid (DOP) (Human δ-opioid (DOP); [3H]-Bremazocine, 10 µM): + (“+” indicates greater than 50% inhibition at 10 μM)
COC[C@H]1OC(OCc2ccc(-c3ccccc3)cc2)[C@H](NC(=O)CCNC(=N)N)[C@@H](OCc2ccccc2)[C@@H]1O (stereo partly shown) [compound 7]												A2 radioligand binding inhibition (Human κ-Opioid (KOP); human κ-opioid (KOP) membranes): − (“−” indicates less than 50% inhibition at 10 μM); A3 radioligand binding inhibition (Human Melanocortin (MC3); human melanocortin MC3 membranes): − (“−” indicates less than 50% inhibition at 10 μM); A11 radioligand binding inhibition (Mouse urotensin (mUR2); mouse urotensin mUR2 membranes): − (“−” indicates less than 50% inhibition at 10 μM); A6 radioligand binding inhibition ([1]; human MCH1 membranes): + (“+” indicates greater than 50% inhibition at 10 μM); A5 radioligand binding inhibition (Human melanocortin (MC5); human melanocortin MC5 membranes): − (“−” indicates less than 50% inhibition at 10 μM); A9 radioligand binding inhibition ([2]; human NPY-Y1 membranes): − (“−” indicates less than 50% inhibition at 10 μM); A7 radioligand binding inhibition (Human μ-opioid (MOP); human μ-opioid (MOP) membranes): + (“+” indicates greater than 50% inhibition at 10 μM); A4 radioligand binding inhibition (Human Melanocortin (MC4); human melanocortin MC4 membranes): − (“−” indicates less than 50% inhibition at 10 μM); A1 radioligand binding inhibition (Human δ-opioid (DOP); human δ-opioid (DOP) membranes): − (“−” indicates less than 50% inhibition at 10 μM); A8 radioligand binding inhibition (Human neurokinin (NK1); human neurokinin NK1 membranes): + (“+” indicates greater than 50% inhibition at 10 μM); A10 radioligand binding inhibition (Human opioid (ORL1); human ORL1 membranes): − (“−” indicates less than 50% inhibition at 10 μM)
NCCCC(=O)NC1C(OCc2ccc(Cl)cc2)OC(COCc2ccc3ccccc3c2)C(O)C1OCc1ccccc1 (single isomer, unassigned) [compound 501]	− (“−” indicates less than 50% inhibition at 10 μM)	− (“−” indicates less than 50% inhibition at 10 μM)		+ (“+” indicates greater than 50% inhibition at 10 μM)	− (“−” indicates less than 50% inhibition at 10 μM)	+ (“+” indicates greater than 50% inhibition at 10 μM)	− (“−” indicates less than 50% inhibition at 10 μM)	+ (“+” indicates greater than 50% inhibition at 10 μM)	+ (“+” indicates greater than 50% inhibition at 10 μM)	+ (“+” indicates greater than 50% inhibition at 10 μM)	− (“−” indicates less than 50% inhibition at 10 μM)	A6: inhibition of radioligand binding, human melanin-concentrating hormone (MCH1) ([1]; 10 µM): − (“−” indicates less than 50% inhibition at 10 μM)
NCCC(=O)NC1C(OCc2ccc(Cl)cc2)OC(COCc2ccccc2)C(O)C1OCc1ccc(Cl)cc1 (single isomer, unassigned) [compound 474]												A2: inhibition of radioligand binding (Human κ-Opioid (KOP); [3H]-Diprenorphine, human KOP membranes): − (“−” indicates less than 50% inhibition at 10 μM); A3: inhibition of radioligand binding (Human Melanocortin (MC3); [125I]-NDP-αMSH, human MC3 membranes): − (“−” indicates less than 50% inhibition at 10 μM); A11: inhibition of radioligand binding (Mouse urotensin (mUR2); [125I]-Urotensin II, mouse mUR2 membranes): − (“−” indicates less than 50% inhibition at 10 μM); A6: inhibition of radioligand binding ([1]; [125I]-S36057, human MCH1 membranes, 10 µM): − (“−” indicates less than 50% inhibition at 10 μM); A5: inhibition of radioligand binding (Human melanocortin (MC5); [125I]-NDP-αMSH, human MC5 membranes, 10 µM): − (“−” indicates less than 50% inhibition at 10 μM); A9: inhibition of radioligand binding ([2]; [125I]-PYY, human NPY-Y1 membranes): − (“−” indicates less than 50% inhibition at 10 μM); A7: inhibition of radioligand binding (Human μ-opioid (MOP); [3H]-Naloxone, human MOP membranes, 10 µM): − (“−” indicates less than 50% inhibition at 10 μM); A4: inhibition of radioligand binding (Human Melanocortin (MC4); [125I]-NDP-αMSH, human MC4 membranes): − (“−” indicates less than 50% inhibition at 10 μM); A1: inhibition of radioligand binding (Human δ-opioid (DOP); [3H]-Bremazocine, human DOP membranes): − (“−” indicates less than 50% inhibition at 10 μM); A8: inhibition of radioligand binding (Human neurokinin (NK1); [125I]-Substance P, human NK1 membranes): + (“+” indicates greater than 50% inhibition at 10 μM); A10: inhibition of radioligand binding (Human opioid (ORL1); [125I]-Nociceptin, human ORL1 membranes, 10 µM): + (“+” indicates greater than 50% inhibition at 10 μM)

Reference: patent publication US20080009418A1, “Selective Inhibitors” (Alchemia LTD., priority 2004, published 2008)
